From patent US20160220569A1, “CDK4/6 Inhibitor Dosage Formulations For The Protection Of Hematopoietic Stem And Progenitor Cells During Chemotherapy” (G1 Therapeutics, Inc., priority 2015, published 2016)
Read-outs that look alike come from different tables or passages of the source.

Test: 14-day oral gavage toxicokinetic study in rats
Type: in vivo
Details: female, rat, plasma, po; for concentration at 1 h / concentration at 2 h / concentration at 4 h / concentration at 8 h / concentration at 12 h / concentration at 24 h / concentration at 0.5 h / concentration at […]: rats; for concentration at […]: Day 14, […]; for half-life: read-out: t½ (converted)
Experimental: Plasma was obtained from blood samples collected from rats in a composite sampling scheme, with 3 samples collected per sex, per dose, at each target collection time, as illustrated in Table 21 to Table 25. Samples were collected from the vehicle control group on Day 1 and Day 14 at 3 hour after administration. […] Blood samples were collected in tubes containing K3EDTA as an anticoagulant and placed on ice until processed to plasma via centrifugation. Samples were stored frozen at −80° C. until shipment to the bioanalytical laboratory for analysis.
The following parameters were determined:
Cmax: Maximum observed plasma concentration (ng/mL).
A value of 0 ng/mL was assigned to all values below the lower limit of quantitation (BLQ, <10.0 ng/mL).
AUC(0-inf): Area under the plasma concentration vs. time curve extrapolated from 0 to infinity (ng*h/mL), calculated as AUC(0-t)+AUC(t-inf) where AUC(t-inf) is calculated as last measurable concentration (CLast) divided by ke, where ke is the elimination rate constant determined by linear regression of the last three analytically measured points on the log plasma concentration vs. time curve. The selection criteria of the data points for inclusion in the calculation of ke required that at least three data points representing the terminal phase (after Tmax) were regressed and that R2≧0.850 when rounded.
CL: Clearance (L/h/kg), calculated as the dose divided by AUC(0-t).
Vd: Volume of distribution (L/kg), calculated as dose divided by the product of ke and AUC(0-inf).
Vdss: Steady state volume of distribution (L/kg), calculated as clearance […] mean residence time, where mean residence time is calculated as the area under the first moment curve divided by AUC(0-t).
t½: Elimination half-life (h), calculated as ln(2)/ke, where ke is the elimination rate constant determined by linear regression. Half-life was defined as not determined if regression criteria (specified in AUC(0-inf) above) were not met.
Cmax/Dose: Normalized Cmax, calculated as Cmax divided by total dose.
AUC/Dose: Normalized AUC, calculated as AUC(0-t) divided by total dose.
ii. Statistical Analysis Mean and standard deviation (SD) were calculated in Watson. Values of BLQ were assigned a value of 0 ng/mL for mean calculations. Concentration values and derived TK parameters were reported to three significant figures.

[1] = 2 mg/kg, oral 2 mg/kg, Study Day 1, Female
[2] = 2 mg/kg, oral 2 mg/kg, Study Day 14, Female
[3] = 5 mg/kg, oral 5 mg/kg, Study Day 1, Female
[4] = 5 mg/kg, oral 5 mg/kg, Study Day 14, Female

CN1CCN(c2ccc(Nc3ncc4cc5n(c4n3)C3(CCCCC3)CNC5=O)nc2)CC1 [Compound 1, 2′-((5-(4-methylpiperazin-1-yl)pyridin-2-yl)amino)-7′,8′-dihydro-6′H-spiro[cyclohexane-1,9′-pyrazino[1′,2′:1,5]pyrrolo[2,3-d]pyrimidin]-6′-one] showed a concentration at 1 h (2 mg/kg, Mean Compound 1 Plasma Concentration, oral 2 mg/kg, Day 1, 1 h, Female) of 91.4 ng/mL, a concentration at 2 h (2 mg/kg, Mean Compound 1 Plasma Concentration, oral 2 mg/kg, Day 1, 2 h, Female) of 196 ng/mL and a concentration at 4 h (2 mg/kg, Mean Compound 1 Plasma Concentration, oral 2 mg/kg, Day 1, 4 h, Female) of 175 ng/mL. The concentration at 8 h (2 mg/kg, Mean Compound 1 Plasma Concentration, oral 2 mg/kg, Day 1, 8 h, Female) was 96.7 ng/mL, the concentration at 12 h (2 mg/kg, Mean Compound 1 Plasma Concentration, oral 2 mg/kg, Day 1, 12 h, Female) was 82.2 ng/mL and the concentration at 24 h (2 mg/kg, Mean Compound 1 Plasma Concentration, oral 2 mg/kg, Day 1, 24 h, Female) was 13 ng/mL. For the same compound, the concentration at 0.5 h (2 mg/kg, Mean Compound 1 Plasma Concentration, oral 2 mg/kg, Day 14, 0.5 h, Female) was 150 ng/mL, the concentration at 1 h (2 mg/kg, Mean Compound 1 Plasma Concentration, oral 2 mg/kg, Day 14, 1 h, Female) was 111 ng/mL and the concentration at 2 h (2 mg/kg, Mean Compound 1 Plasma Concentration, oral 2 mg/kg, Day 14, 2 h, Female) was 212 ng/mL. It also gave a concentration at 8 h (2 mg/kg, Mean Compound 1 Plasma Concentration, oral 2 mg/kg, Day 14, 8 h, Female) of 117 ng/mL, a concentration at 12 h (2 mg/kg, Mean Compound 1 Plasma Concentration, oral 2 mg/kg, Day 14, 12 h, Female) of 48.7 ng/mL and a concentration at 24 h (2 mg/kg, Mean Compound 1 Plasma Concentration, oral 2 mg/kg, Day 14, 24 h, Female) of 10.8 ng/mL. For the same compound, the concentration at […] (2 mg/kg, Mean Compound 1 Plasma Concentration, oral 2 mg/kg, Female) was 10 ng/mL, the AUC(0-inf) [1] was 2160 ng·h/mL and the AUC(0-t) [1] was 2060 ng·h/mL. It also gave a Cmax [1] of 196 ng/mL, a Tmax [1] of 2 h and a half-life [1] of 5.25 h. It also gave an AUC(0-inf) [2] of 1850 ng·h/mL, an AUC(0-t) [2] of 1770 ng·h/mL and a Cmax [2] of 212 ng/mL. It also gave a Tmax [2] of 2 h, a half-life [2] of 4.83 h and a concentration at 0.5 h (5 mg/kg, Individual Compound 1 Plasma Concentration, daily oral 5 mg/kg, Day 1, Female, 0.5 h) of 246 ng/mL. It also gave a concentration at 2 h (5 mg/kg, Individual Compound 1 Plasma Concentration, daily oral 5 mg/kg, Day 1, Female, 2 h) of 533 ng/mL, a concentration at 8 h (5 mg/kg, Individual Compound 1 Plasma Concentration, daily oral 5 mg/kg, Day 1, Female, 8 h) of 432 ng/mL and a concentration at 24 h (5 mg/kg, Individual Compound 1 Plasma Concentration, daily oral 5 mg/kg, Day 1, Female, 24 h) of 23.2 ng/mL. For the same compound, the concentration at 1 h (5 mg/kg, Individual Compound 1 Plasma Concentration, daily oral 5 mg/kg, Day 14, Female, 1 h) was 428 ng/mL, the concentration at 4 h (5 mg/kg, Individual Compound 1 Plasma Concentration, daily oral 5 mg/kg, Day 14, Female, 4 h) was 423 ng/mL and the concentration at 8 h (5 mg/kg, Individual Compound 1 Plasma Concentration, daily oral 5 mg/kg, Day 14, Female, 8 h) was 234 ng/mL. For the same compound, the concentration at 12 h (5 mg/kg, Individual Compound 1 Plasma Concentration, daily oral 5 mg/kg, Day 14, Female, 12 h) was 112 ng/mL, the concentration at 24 h (5 mg/kg, Individual Compound 1 Plasma Concentration, daily oral 5 mg/kg, Day 14, Female, 24 h) was 22.2 ng/mL and the concentration at 0.5 h (5 mg/kg, Mean Compound 1 Plasma Concentration, oral 5 mg/kg, Day 1, 0.5 h, Female) was 267 ng/mL. The concentration at 1 h (5 mg/kg, Mean Compound 1 Plasma Concentration, oral 5 mg/kg, Day 1, 1 h, Female) was 406 ng/mL, the concentration at 2 h (5 mg/kg, Mean Compound 1 Plasma Concentration, oral 5 mg/kg, Day 1, 2 h, Female) was 528 ng/mL and the concentration at 4 h (5 mg/kg, Mean Compound 1 Plasma Concentration, oral 5 mg/kg, Day 1, 4 h, Female) was 482 ng/mL. It also gave a concentration at 8 h (5 mg/kg, Mean Compound 1 Plasma Concentration, oral 5 mg/kg, Day 1, 8 h, Female) of 360 ng/mL, a concentration at 12 h (5 mg/kg, Mean Compound 1 Plasma Concentration, oral 5 mg/kg, Day 1, 12 h, Female) of 140 ng/mL and a concentration at 24 h (5 mg/kg, Mean Compound 1 Plasma Concentration, oral 5 mg/kg, Day 1, 24 h, Female) of 18.6 ng/mL. For the same compound, the concentration at 0.5 h (5 mg/kg, Mean Compound 1 Plasma Concentration, oral 5 mg/kg, Day 14, 0.5 h, Female) was 382 ng/mL, the concentration at 1 h (5 mg/kg, Mean Compound 1 Plasma Concentration, oral 5 mg/kg, Day 14, 1 h, Female) was 519 ng/mL and the concentration at 2 h (5 mg/kg, Mean Compound 1 Plasma Concentration, oral 5 mg/kg, Day 14, 2 h, Female) was 493 ng/mL. For the same compound, the concentration at 4 h (5 mg/kg, Mean Compound 1 Plasma Concentration, oral 5 mg/kg, Day 14, 4 h, Female) was 439 ng/mL, the concentration at 8 h (5 mg/kg, Mean Compound 1 Plasma Concentration, oral 5 mg/kg, Day 14, 8 h, Female) was 255 ng/mL and the concentration at 12 h (5 mg/kg, Mean Compound 1 Plasma Concentration, oral 5 mg/kg, Day 14, 12 h, Female) was 105 ng/mL. The concentration at 24 h (5 mg/kg, Mean Compound 1 Plasma Concentration, oral 5 mg/kg, Day 14, 24 h, Female) was 19.2 ng/mL, the concentration at […] (5 mg/kg, Mean Compound 1 Plasma Concentration, oral 5 mg/kg, Female) was 70.7 ng/mL and the AUC(0-inf) [3] was 5440 ng·h/mL. For the same compound, the AUC(0-t) [3] was 5340 ng·h/mL, the Cmax [3] was 528 ng/mL and the Tmax [3] was 2 h. It also gave a half-life [3] of 3.82 h, an AUC(0-inf) [4] of 4740 ng·h/mL and an AUC(0-t) [4] of 4620 ng·h/mL. The Cmax [4] was 519 ng/mL.
